Laboratory results: PMC3614091 (Organic & biomolecular chemistry, 2010)

Experiments:
[1] = target: T1, PICK1 PDZ domain (Rattus norvegicus, UniProt Q9EP80); settings: cited from earlier work
[2] = tested on: hippocampal CA1 neurons; settings: cited from earlier work
[3] = target: T2, PDZ2 of PSD-95 (Homo sapiens, UniProt P78352); settings: PDZ domains from PSD-95; cited from earlier work
[4] = tested on: PDZ4-5 of glutamate receptor interacting protein-1 (GRIP1); settings: PDZ4-5 of GRIP1; cited from earlier work
[5] = target: T1, PICK1 PDZ domain; assay type: binding; settings: for affinity for PICK1 PDZ domain: at up to 500 µM concentrations (data not shown)
[6] = tested on: AMPA receptor trafficking; settings: cited from earlier work
[7] = target: T3, PDZ1 of PSD-95 (Homo sapiens, UniProt P78352); settings: PDZ domains from PSD-95; cited from earlier work
[8] = tested on: PICK1; settings: biochemical studies; cited from earlier work
[9] = target: T4, PDZ3 of PSD-95 (Homo sapiens, UniProt P78352); settings: PDZ domains from PSD-95; cited from earlier work
[10] = target: T4, PDZ3 of PSD-95; experiment: Fluorescence polarization assay, PSD-95 PDZ3; assay type: binding; settings: tested at 500 µM (data not shown)
[11] = target: T2, PDZ2 of PSD-95; experiment: Fluorescence polarization assay, PSD-95 PDZ2; assay type: binding; settings: tested at 500 µM (data not shown)
[12] = target: T3, PDZ1 of PSD-95; experiment: Fluorescence polarization assay, PSD-95 PDZ1; assay type: binding; settings: tested at 500 µM (data not shown)

T1 sequence (Q9EP80 whole entry, the tested form may be a part): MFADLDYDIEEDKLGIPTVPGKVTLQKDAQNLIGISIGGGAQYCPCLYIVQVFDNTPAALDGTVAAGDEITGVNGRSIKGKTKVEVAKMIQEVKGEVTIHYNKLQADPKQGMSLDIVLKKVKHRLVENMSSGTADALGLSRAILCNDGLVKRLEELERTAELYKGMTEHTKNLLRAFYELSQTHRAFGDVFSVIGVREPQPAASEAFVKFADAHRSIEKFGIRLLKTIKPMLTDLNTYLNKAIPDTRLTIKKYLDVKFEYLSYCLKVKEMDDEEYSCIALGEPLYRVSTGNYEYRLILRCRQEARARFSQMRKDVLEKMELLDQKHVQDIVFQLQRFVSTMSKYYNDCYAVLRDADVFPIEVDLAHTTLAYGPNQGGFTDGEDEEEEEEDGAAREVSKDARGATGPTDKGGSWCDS

Structure (SMILES)	Ki [5]	affinity towards PDZ3 of PSD-95 [10]	affinity towards PDZ2 of PSD-95 [11]	affinity for PICK1 PDZ domain [5]	affinity towards PDZ1 of PSD-95 [12]	binding to PICK1 PDZ domain in living cells ([1]; intracellular FRET)	membrane permeability ([1]; not told)	effect on induction of LTD and LTP [2]	affinity for PDZ2 of PSD-95 [3]	affinity for PDZ domains from GRIP1 [4]	effect on AMPA receptor trafficking [6]	affinity for PDZ1 of PSD-95 [7]	reversibility of binding to PICK1 [8]	affinity for PDZ3 of PSD-95 [9]
CCOC(=O)NC(=O)C(C#N)Cc1ccc(Cl)c(Cl)c1 (centres unmarked) [Compound 3, Ethyl 2-cyano-3-(3,4-dichlorophenyl)propanoylcarbamate]		none of the compounds showed affinity	none of the compounds showed affinity	devoid of affinity	none of the compounds showed affinity									
CCOC(=O)NC/C(C#N)=C/c1ccc(Cl)c(Cl)c1 [Compound 14, (Z)-ethyl 2-cyano-3-(3,4-dichlorophenyl)allylcarbamate]		none of the compounds showed affinity	none of the compounds showed affinity	devoid of affinity	none of the compounds showed affinity									
CCCCNC(=O)/C(C#N)=C/c1ccc(Cl)c(Cl)c1 [Compound 8, (E)-N-butyl-2-cyano-3-(3,4-dichlorophenyl)acrylamide]		none of the compounds showed affinity	none of the compounds showed affinity	devoid of affinity	none of the compounds showed affinity									

Further lines, with some results ahead:

Ki [5]	affinity towards PDZ3 of PSD-95 [10]	affinity towards PDZ2 of PSD-95 [11]	affinity for PICK1 PDZ domain [5]	affinity towards PDZ1 of PSD-95 [12]	Structure (SMILES)	binding to PICK1 PDZ domain in living cells ([1]; intracellular FRET)	membrane permeability ([1]; not told)	effect on induction of LTD and LTP [2]	affinity for PDZ2 of PSD-95 [3]	affinity for PDZ domains from GRIP1 [4]	effect on AMPA receptor trafficking [6]	affinity for PDZ1 of PSD-95 [7]	reversibility of binding to PICK1 [8]	affinity for PDZ3 of PSD-95 [9]
9.6 ± 0.22 µM					CCOC(=O)NC(=O)/C(C#N)=C/c1ccc(Cl)c(Cl)c1 [Compound 1, (E)-ethyl 2-cyano-3-(3,4-dichlorophenyl)acryloylcarbamate]	binds the PICK1 PDZ domain in living cells	membrane permeable	inhibited induction of LTD and LTP	no affinity	no affinity	affected AMPA receptor trafficking	no affinity	binds reversibly	no affinity
	none of the compounds showed affinity	none of the compounds showed affinity	devoid of affinity	none of the compounds showed affinity	CCOC(=O)NC(=O)/C=C/c1ccc(Cl)c(Cl)c1 [Compound 5, (E)-ethyl 3-(3,4-dichlorophenyl)acryloylcarbamate]									
